Reference: patent US20040225017A1, “Chloramine T based teat cleaner and related process” (priority 2003, published 2004)

How the values were obtained:
[1] = pH at which the solution buffers out; format: physicochemical; settings: in solution, residual on teat surface
teat area of animals = settings: in vivo

- pH at which it naturally buffers out [1]: about 9
SMILES: Cc1ccc(S(=O)(=O)[N-]Cl)cc1.[Na+] [CHT, Chloramine T]
- irritation of the teat area (teat area of animals): do not irritate the teat area
